Data on 2 molecules can be found in US9802939.

Read-outs that look alike come from different tables or passages of the source.

For the data set the following is noted: 12-membered ring.

On to `CC(C)(C)OC(=O)N[C@H]1CC=CCCOc2ccccc2-c2cn(COCC[Si](C)(C)C)c1n2`, for which the ring closure, isolated yield (from C=CCCOc1ccccc1-c1cn(COCC[Si](C)(C)C)c([C@H](CC=C)NC(=O)OC(C)(C)C)n1, rcm bond, Grubbs II (1 eq)/pTsOH, DCM, 1.02 mM, 40.0 °C) stood at 20%.
On to `COC(=O)Nc1ccc2c(c1)NC(=O)CCN(C(=O)OC(C)(C)C)C[C@H](NC(=O)OCc1ccccc1)c1nc-2cn1COCC[Si](C)(C)C`, for which the ring closure, isolated yield (from COC(=O)Nc1ccc(-c2cn(COCC[Si](C)(C)C)c([C@H](CN(CCC(=O)O)C(=O)OC(C)(C)C)NC(=O)OCc3ccccc3)n2)c(N)c1, amide bond, BOP/DIEA, DCM/DMF, 0.93 mM, 25.0 °C) is 87%.
